The values below come from article PMC8148554, “Characterization and Regulation of the Acetolactate Synthase Genes Involved in Acetoin Biosynthesis in Acetobacter pasteurianus” (Foods, 2021).

This experiment concerns the target T1, AlsS2 (Acetobacter pasteurianus, UniProt A0A401X088).
T1 construct: gene NBRC3278_0356; full length, gene 1695 bp (564 residues with stop codon in the gene); pET-22b(+) NdeI/XhoI, E. coli BL21(DE3), His tag (C-terminal by cloning, no stop in primer); about 59 kDa
T1 sequence (A0A401X088 1-564): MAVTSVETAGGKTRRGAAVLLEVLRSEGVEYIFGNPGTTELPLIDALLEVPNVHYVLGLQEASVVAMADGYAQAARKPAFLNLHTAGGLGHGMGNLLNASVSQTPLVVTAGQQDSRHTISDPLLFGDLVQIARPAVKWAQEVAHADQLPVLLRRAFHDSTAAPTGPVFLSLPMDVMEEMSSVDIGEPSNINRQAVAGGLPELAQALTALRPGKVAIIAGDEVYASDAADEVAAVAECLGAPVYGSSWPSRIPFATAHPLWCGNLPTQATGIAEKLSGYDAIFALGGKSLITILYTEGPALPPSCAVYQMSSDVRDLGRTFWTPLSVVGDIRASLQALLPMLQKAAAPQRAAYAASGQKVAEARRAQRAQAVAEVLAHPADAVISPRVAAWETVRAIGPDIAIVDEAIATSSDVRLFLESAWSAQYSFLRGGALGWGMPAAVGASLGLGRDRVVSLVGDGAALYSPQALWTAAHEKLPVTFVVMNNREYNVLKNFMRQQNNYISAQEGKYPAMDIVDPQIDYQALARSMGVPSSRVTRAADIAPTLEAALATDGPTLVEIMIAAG
Put plainly: GC detection of benzaldehyde formed. Type of experiment: biochemical. The following applies: 10 mM benzoylformate, 0.5 mM MgCl2, 1 mM TPP, 100 mM sodium phosphate pH 7.0, 37 °C, 10 h.

As for `O=C(O)C(=O)c1ccccc1` [benzoylformate], the “GC detection of benzaldehyde formed” value is “Benzaldehyde was detected in the reaction mixture”.
